Data as given in patent US12102648B2, “Orally-bioavailable nucleoside analogs” (priority 2021, dated 2024).
Like-named read-outs stand apart in the source and are kept apart here.

Assay: in vitro
Type: in vitro ADME
Details: human
Summary of the method: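 Permeability measured in both directions across 19-day Caco-2 layers with TEER above 600 […], incubated at 37° C without shaking; donor and receiver sampled at 10 and 90 min for LC/MS/MS. Derived values: Papp (cm/s), efflux ratio, recovery.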

[1] = Caco-2 monolayer, apical to basolateral, 90-minute incubation, read-out: Papp, A-B
[2] = Caco-2 monolayer, basolateral to apical, 90-minute incubation, read-out: Papp, B-A
[3] = Caco-2 monolayer, ER>2 indicates potential efflux transporter substrate, read-out: ER (efflux ratio)

SMILES	Papp A→B at 90 min (Caco-2) [×10⁻⁶ cm/s]	Papp B→A at 90 min (Caco-2) [×10⁻⁶ cm/s]	efflux ratio at 90 min (Caco-2)	Papp A→B at 90 min [1] [×10⁻⁶ cm/s]	Papp B→A at 90 min [2] [×10⁻⁶ cm/s]	efflux ratio at 90 min [3]
C[C@H](C(=O)OC[C@H]1O[C@@](C#N)(c2ccc3c(N)ncnn23)[C@H](O)[C@@H]1O)C1CCCCC1 [Compound 281, ((2R,3S,4R,5R)-5-(4-aminopyrrolo[2,1-f][1,2,4]triazin-7-yl)-5-cyano-3,4-dihydroxytetrahydrofuran-2-yl)methyl (S)-2-cyclohexylpropanoate]	13	29	2.3	–	–	–
N#C[C@@]1(c2ccc3c(N)ncnn23)O[C@H](COC(=O)CC2CCOCC2)[C@@H](O)[C@H]1O [Compound 257, ((2R,3S,4R,5R)-5-(4-aminopyrrolo[2,1-f][1,2,4]triazin-7-yl)-5-cyano-3,4-dihydroxytetrahydrofuran-2-yl)methyl 2-(tetrahydro-2H-pyran-4-yl)acetate]	0.03	1.4	46	–	–	–
CC(=O)OC[C@H]1O[C@@](C#N)(c2ccc3c(N)ncnn23)[C@H](O)[C@@H]1OC(=O)CC(C)C [Compound 49, (2R,3S,4R,5R)-2-(acetoxymethyl)-5-(4-aminopyrrolo[2,1-f][1,2,4]triazin-7-yl)-5-cyano-4-hydroxytetrahydrofuran-3-yl 3-methylbutanoate]	3.9	2.7	0.7	–	–	–
CC(=O)Nc1ncnn2c([C@]3(C#N)O[C@H](COC(=O)Cc4ccccc4)[C@@H](OC(=O)[C@@H](N)C(C)C)[C@H]3O)ccc12 [Compound 344, (2R,3S,4R,5R)-5-(4-acetamidopyrrolo[2,1-f][1,2,4]triazin-7-yl)-5-cyano-4-hydroxy-2-((2-phenylacetoxy)methyl)tetrahydrofuran-3-yl L-valinate]	–	–	–	0.8	9.7	12
CCC(=O)O[C@H]1[C@@H](O)[C@](C#N)(c2ccc3c(N)ncnn23)O[C@@H]1COC(=O)CC(C)C [Compound 23, ((2R,3S,4R,5R)-5-(4-aminopyrrolo[2,1-f][1,2,4]triazin-7-yl)-5-cyano-4-hydroxy-3-(propionyloxy)tetrahydrofuran-2-yl)methyl 3-methylbutanoate]	6.3	8.1	1.3	–	–	–
CCCCCOC(=O)Nc1ncnn2c([C@]3(C#N)O[C@H](COC(=O)C(C)C)[C@@H](O)[C@H]3O)ccc12 [Compound 92, ((2R,3S,4R,5R)-5-cyano-3,4-dihydroxy-5-(4-(((pentyloxy)carbonyl)amino)pyrrolo[2,1-f][1,2,4]triazin-7-yl)tetrahydrofuran-2-yl)methyl isobutyrate]	2.7	4.6	1.7	–	–	–
N#C[C@@]1(c2ccc3c(N)ncnn23)O[C@H](COC(=O)CC2(c3ccccc3)CCOCC2)[C@@H](O)[C@H]1O [Compound 274, ((2R,3S,4R,5R)-5-(4-aminopyrrolo[2,1-f][1,2,4]triazin-7-yl)-5-cyano-3,4-dihydroxytetrahydrofuran-2-yl)methyl 2-(4-phenyltetrahydro-2H-pyran-4-yl)acetate]	0.85	12	14	–	–	–
CC(C)C(=O)OC[C@H]1O[C@@](C#N)(c2ccc3c(NC(=O)[C@@H](N)Cc4ccc(F)cc4)ncnn23)[C@H](O)[C@@H]1O [Compound 100, ((2R,3S,4R,5R)-5-(4-((S)-2-amino-3-(4-fluorophenyl)propanamido)pyrrolo[2,1-f][1,2,4]triazin-7-yl)-5-cyano-3,4-dihydroxytetrahydrofuran-2-yl)methyl isobutyrate]	0.03	2.7	92	–	–	–
CC(C)[C@H](N)C(=O)Nc1ncnn2c([C@]3(C#N)O[C@H](CO)[C@@H](OC(=O)[C@@H](N)C(C)C)[C@H]3O)ccc12 [Compound 129, (2R,3S,4R,5R)-5-{4-[(2S)-2-amino-3-methylbutanamido]pyrrolo[2,1-f][1,2,4]triazin-7-yl}-5-cyano-4-hydroxy-2-(hydroxymethyl)oxolan-3-yl (2S)-2-amino-3-methylbutanoate]	0.03	0.02	0.7	–	–	–
N#C[C@@]1(c2ccc3c(N)ncnn23)O[C@H](COC(=O)CC2CCC(C(F)(F)F)CC2)[C@@H](OC(=O)CC2CCC(C(F)(F)F)CC2)[C@H]1O (stereo partly drawn) [Compound 271, (2R,3S,4R,5R)-5-(4-aminopyrrolo[2,1-f][1,2,4]triazin-7-yl)-5-cyano-4-hydroxy-2-((2-(4-(trifluoromethyl)cyclohexyl)acetoxy)methyl)tetrahydrofuran-3-yl 2-(4-(trifluoromethyl)cyclohexyl)acetate]	0.06	0.52	8.7	–	–	–
CNc1nc(N)nc2c1ncn2[C@@H]1O[C@H](COC(=O)C(C)C)[C@@H](OC(=O)CC2CCCCC2)[C@@]1(C)F [Compound 195, ((2R,3R,4R,5R)-5-(2-amino-6-(methylamino)-9H-purin-9-yl)-3-(2-cyclohexylacetoxy)-4-fluoro-4-methyltetrahydrofuran-2-yl)methyl isobutyrate]	6.3	1.1	0.18	–	–	–
CC(=O)O[C@H]1[C@@H](OC(C)=O)[C@](C#N)(c2ccc3c(N)ncnn23)O[C@@H]1COC(=O)C(C)(C)C1CCCCC1 [Compound 412, (2R,3R,4R,5R)-2-(4-aminopyrrolo[2,1-f][1,2,4]triazin-7-yl)-2-cyano-5-(((2-cyclohexyl-2-methylpropanoyl)oxy)methyl)tetrahydrofuran-3,4-diyl diacetate]	5.1	0.9	0.2	–	–	–
CNc1nc(N)nc2c1ncn2[C@@H]1O[C@H](COC(=O)CC2CCCCC2)[C@@H](OC(C)=O)[C@@]1(C)F [Compound 215, ((2R,3R,4R,5R)-3-acetoxy-5-(2-amino-6-(methylamino)-9H-purin-9-yl)-4-fluoro-4-methyltetrahydrofuran-2-yl)methyl 2-cyclohexylacetate]	9.3	1.6	0.18	–	–	–
CC(C)(C)C(=O)OCO[C@H]1[C@@H](O)[C@](C#N)(c2ccc3c(N)ncnn23)O[C@@H]1COC(=O)Cc1ccccc1 [Compound 48, {[(2R,3S,4R,5R)-5-{4-aminopyrrolo[2,1-f][1,2,4]triazin-7-yl}-5-cyano-4-hydroxy-2-{[(2-phenylacetyl)oxy]methyl}oxolan-3-yl]oxy}methyl 2,2-dimethylpropanoate]	–	–	–	6.9	1.9	0.27
CCC(=O)OC[C@H]1O[C@@](C#N)(c2ccc3c(N)ncnn23)[C@H](O)[C@@H]1OCOC(=O)C(C)(C)C [Compound 72, {[(2R,3S,4R,5R)-5-{4-aminopyrrolo[2,1-f][1,2,4]triazin-7-yl}-5-cyano-4-hydroxy-2-[(propanoyloxy)methyl]oxolan-3-yl]oxy}methyl 2,2-dimethylpropanoate]	5.8	3.2	0.55	–	–	–
CCCCOC(=O)Nc1ncnn2c([C@]3(C#N)O[C@H](COC(=O)C(C)(C)C4CCCCC4)[C@@H](O)[C@H]3O)ccc12 [Compound 379, ((2R,3S,4R,5R)-5-(4-((butoxycarbonyl)amino)pyrrolo[2,1-f][1,2,4]triazin-7-yl)-5-cyano-3,4-dihydroxytetrahydrofuran-2-yl)methyl 2-cyclohexyl-2-methylpropanoate]	1.6	2.5	1.6	–	–	–
CC(C)CC(=O)OC[C@H]1O[C@@](C#N)(c2ccc3c(N)ncnn23)[C@H](O)[C@@H]1OC(=O)C(C)C [Compound 22, ((2R,3S,4R,5R)-5-(4-aminopyrrolo[2,1-f][1,2,4]triazin-7-yl)-5-cyano-4-hydroxy-3-(isobutyryloxy)tetrahydrofuran-2-yl)methyl 3-methylbutanoate]	7	10	1.5	–	–	–
CC(=O)OCOC(=O)Nc1ncnn2c([C@]3(C#N)O[C@H](COC(=O)CC4(N)CCCCC4)[C@@H](O)[C@H]3O)ccc12 [Compound 363, ((2R,3S,4R,5R)-5-(4-(((acetoxymethoxy)carbonyl)amino)pyrrolo[2,1-f][1,2,4]triazin-7-yl)-5-cyano-3,4-dihydroxytetrahydrofuran-2-yl)methyl 2-(1-aminocyclohexyl)acetate]	0.07	0.02	0.33	–	–	–
CC(C)(C)C(=O)OCO[C@H]1[C@@H](O)[C@](C#N)(c2ccc3c(N)ncnn23)O[C@@H]1COC(=O)CC1CCCCC1 [Compound 32, (((2R,3S,4R,5R)-5-(4-aminopyrrolo[2,1-f][1,2,4]triazin-7-yl)-5-cyano-2-((2-cyclohexylacetoxy)methyl)-4-hydroxytetrahydrofuran-3-yl)oxy)methyl pivalate]	6.9	5.5	0.8	–	–	–
CCC(=O)OC[C@H]1O[C@@](C#N)(c2ccc3c(NC(=O)[C@@H](N)C(C)C)ncnn23)[C@H](O)[C@@H]1O [Compound 115, ((2R,3S,4R,5R)-5-(4-((S)-2-amino-3-methylbutanamido)pyrrolo[2,1-f][1,2,4]triazin-7-yl)-5-cyano-3,4-dihydroxytetrahydrofuran-2-yl)methyl propionate]	0.04	1.7	47	–	–	–
CC(C)C(=O)Nc1ncnn2c([C@]3(C#N)O[C@H](COC(=O)CC4CCCCC4)[C@@H](OC(=O)[C@@H](N)C(C)C)[C@H]3O)ccc12 [Compound 349, (2R,3S,4R,5R)-5-cyano-2-((2-cyclohexylacetoxy)methyl)-4-hydroxy-5-(4-isobutyramidopyrrolo[2,1-f][1,2,4]triazin-7-yl)tetrahydrofuran-3-yl L-valinate]	1.9	10	5.6	–	–	–
